Measured values reported in US11426367B2, “Methods of treating substance abuse” (Perception Neuroscience, Inc., priority 2018, dated 2022).

Legend:
[1] = test system: morphine withdrawal signs in rats; assay: Naloxone-precipitated withdrawal from subchronic morphine; format: in vivo; conditions: 10 and 20 mg/kg i.p. before naloxone 1 mg/kg SC, morphine 10 mg/kg SC b.i.d.
Procedure: Forty (40) male Wistar rats served as test subjects in this study. Animals were pair housed with unrestricted access to rodent chow and water (SOP ROD.03.01, SOP ROD.04.01, SOP ROD.18). […] All experimental activity occurring during the animals' light cycle. All animal use procedures were performed in accordance with the principles of the Canadian Council on Animal Care (CCAC).
Forty (40) male Wistar rats were assigned to 5 groups of N=8 rats per group. Group A was dosed with saline vehicle (Sal; subcutaneous (SC) route) twice daily (approx. 08:00±1 h and 18:00±1 h) for 12 days. […] This treatment regimen was designed to induce opioid dependence (Erami et al., 2012). […] On days 9 and 12, rats were tested for naloxone precipitated withdrawal. According to a cross-over design (see Table 4: Treatment Groups), all rats in each group received either acute saline, or naloxone hydrochloride (1 mg/kg; dose volume 2 ml/kg) injection by the SC route, 5 minutes prior to behavioral testing. […] Lofexidine doses are based on literature values (e.g. Shearman et al., 1979). Immediately after vehicle or naloxone injection, rats were transferred to activity chambers for 30 minutes where the animals were visually assessed for somatic signs associated with opioid withdrawal (e.g. writhes, chews, ptosis, WDS, shakes, tremor, penile grooming, body weight change; see Higgins and Sellers, 1994). Simultaneously, the activity pattern (distance travelled, rearing) of each rat was automatically recorded.
Locomotor activity. Spontaneous activity in the rats was measured with the automated Med Associates activity test chamber for 30 minutes with 10-minute time bins. The tracking arena was 17″W×17″L×12″H, sensor bars are secured 1″ above the floor to track distance travelled, and a second set of sensor bars are placed ˜5″ above the floor to measure vertical movement and rearing activity. The parameters set on the tracking software were as follows: resolution—50 milliseconds (ms), box size—4 beams, resting delay—500 ms, and ambulatory trigger—2 (SOP ROD.25). […]

[2] = test system: tolerance to effects of ethanol; assay: Tolerance to ethanol, grip strength; conditions: for tolerance to the effect of ethanol on grip strength/body weight (motor-impairment): rats, 3 mg/kg given with ethanol (2.3 and 1.7) on day 1, tested day 2, 30 min post ethanol, 3 mg/kg

## CN[C@@]1(c2ccccc2Cl)CCCCC1=O.Cl [R(−)-ketamine]
[1]
  overall morphine withdrawal scores (naloxone-precipitated withdrawal signs): dose-dependently attenuated overall morphine withdrawal scores
[1]; listed as R-ketamine
  overall morphine withdrawal scores (naloxone-precipitated withdrawal signs): significantly attenuated the naloxone-induced withdrawal signs
[2]; grip strength, Present study
  Ethanol Tolerance, dose blocking development of tolerance: 3 - grip strength mg/kg
[2]
  tolerance to the effect of ethanol on grip strength/body weight (motor-impairment): tolerance was significantly diminished
[2]; listed as R-ketamine
  tolerance to the effect of ethanol on grip strength/body weight (motor-impairment): blocked
